Assay results as given in patent US7355074B2, “Compounds having aromatic rings and side-chain amide-functionality and a method for transporting monovalent anions across biological membranes using the same” (The University of Maryland, priority 2003, dated 2008).

Assays:
[1] = 1H NMR binding experiment in CDCl3 with n-Bu4-NCl
Description: (§1) FIG. 7 illustrates a series of […] spectra (400 mHz, CDCl3, 22° C.) of calixarene tetrabutylamide in the presence of different species: (A) the compound alone (5 mm); (B) the compound with 1 equiv. of Bu4 NCl; (C) the compound after washing CDCl3 solution of the compound with an aqueous solution of 0.5 m HCl; (D) after washing CDCl3 solution of the compound with an aqueous solution of 0.5 M H2SO4.
(§2) To obtain evidence for Cl^− binding by 2, ^1H NMR experiments were run in CDCl3 using n-Bu4-NCl and HCl as Cl^− sources. Anion receptors usually show chemical shift perturbation upon anion complexation, particularly for amide NH protons that hydrogen bond to the anion. […] Calix[4]arene tetrabutylamide 2 does, however, bind HCl. Thus, shaking a CDCl3 solution of 2 with aqueous HCl led to disappearance of the amide NH proton and a significant upfield shift of the […] protons (FIG. 4c).

[2] = 1H NMR binding experiment in CDCl3, HCl extraction
Description: as §1, §2

[3] = calcein dye release assay (lytic potential); format: biochemical; conditions: 5-100 μM, 1-20 mol % ligand; LUVs containing 120 mM calcein
Description: Calix[4]arene tetrabutylamide 2 may transport ions across LUVs by inducing membrane defects, by uniport of ions, or via cotransport of ion pairs ([…], M^− or OH^−/A^− antiport and H^+/A^− or M^+/OH^− symport mechanisms are possible). The lytic potential of 2 was evaluated using a dye release assay. The self-quenching dye calcein loses 95% of its fluorescence emission at concentrations above 100 mM. 2.
EYPC Calcein-Containing Vesicles: Calcein (224.1 mg, 0.36 mmol) was suspended in 3 mL of phosphate buffer (100 mM NaCl, 10 mM sodium phosphate, pH 6.4). The pH of the solution was adjusted to 6.4 with a 7.4 M NaOH-containing phosphate buffer, at which point all the calcein was dissolved to give a 120 mM solution of the dye. The molality of the extravesicular buffer was adjusted to equal that of the calcein-containing solution with 1 m NaCl. Osmomolality was determined by VPO. A thin film was prepared from 60 mg of EYPC ([…]) as described above. The lipid film was hydrated in 1.2 mL of the calcein buffer. During hydration, the suspension was submitted to five freeze-thaw cycles (dry ice in acetone, water at room temperature) and then submitted to high-pressure extrusion (2) extrusions through a 0.1 μm polycarbonate membrane afforded LUVs with an average diameter of 100 nm). […]

binding of the naked Cl− anion [1]: does not bind strongly
HCl binding [2]: binds HCl
calcein fluorescence (membrane defects) [3]: no fluorescence enhancement
SMILES: CCCCNC(=O)COc1c2cccc1Cc1cccc(c1OCC(=O)NCCCC)Cc1cccc(c1OCC(=O)NCCCC)Cc1cccc(c1OCC(=O)NCCCC)C2 [calix[4]arene tetrabutylamide 2, Calix[4]arene tetrabutylamide]
